Reference: patent US10392368B2, “Pyrazolo and triazolo bicyclic compounds as JAK kinase inhibitors” (THERAVANCE BIOPHARMA R&D IP, LLC, priority 2017, dated 2019)
Where two headings read alike, the source gives them in different places.

Experiments:
[1] = biological target: T1, JAK2 (Homo sapiens, UniProt O60674); experiment: Biochemical JAK2 kinase assay (LanthaScreen); settings: for Ki: read-out: JAK 2 (pKi) (converted)
T1 construct: GST; purchased Life Technologies
Method in brief: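 GST-tagged recombinant JAK2 pre-incubated 1 h at ambient temperature with compound and GFP-STAT1 peptide in HEPES pH 7.5/MgCl2 buffer, then ATP added for a 1 h reaction with 1% DMSO. TR-FRET read after EDTA and Tb-anti-pSTAT1 (pTyr701) addition; IC50 from 4-parameter fit, converted to pKi by Cheng-Prusoff.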

[2] = tested on: IL-2 stimulated pSTAT5 in Tall-1 T cells; experiment: Cellular JAK3 potency assay: inhibition of IL-2 stimulated pSTAT5 in Tall-1 T cells; assay type: cell-based, human; settings: for IC50: Homo sapiens, read-out: Tall-1 (pIC50) (converted)
Method in brief: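 Tall-1 human T cells (45,000/well) in phenol red-free DMEM with 10% FBS were preincubated with compound 1 h at 37 °C, then stimulated with IL-2 (final 300 ng/ml) for 30 min. Lysate pSTAT5 read by AlphaLisa; IC50 from inhibition curves, reported as pIC50 (mean±SD).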

[3] = biological target: T2, Tyk2 (Homo sapiens, UniProt P29597); experiment: Biochemical Tyk2 kinase assay (LanthaScreen); settings: for Ki: read-out: Tyk 2 (pKi) (converted)
T2 construct: GST; purchased Life Technologies
Method in brief: (§1)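 TR-FRET readout (520/495 nm) using Tb-labelled pTyr701 antibody after EDTA stop, following 1 h ATP-started phosphorylation of GFP-STAT1 by recombinant GST-JAK. Compounds preincubated 1 h with enzyme and substrate; pIC50 from 4-parameter fit, Cheng-Prusoff gives pKi.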

[4] = biological target: T3, JAK1 (Homo sapiens, UniProt P23458); experiment: Biochemical JAK1 kinase assay (LanthaScreen); settings: for Ki: read-out: JAK 1 (pKi) (converted)
T3 construct: GST; purchased Life Technologies
Method in brief: as §1

[5] = biological target: T4, JAK3 (Homo sapiens, UniProt P52333); experiment: Biochemical JAK3 kinase assay (LanthaScreen); parameters: GST; purchased Life Technologies; settings: for Ki: read-out: JAK 3 (pKi) (converted)
T4 sequence (P52333 1-1124): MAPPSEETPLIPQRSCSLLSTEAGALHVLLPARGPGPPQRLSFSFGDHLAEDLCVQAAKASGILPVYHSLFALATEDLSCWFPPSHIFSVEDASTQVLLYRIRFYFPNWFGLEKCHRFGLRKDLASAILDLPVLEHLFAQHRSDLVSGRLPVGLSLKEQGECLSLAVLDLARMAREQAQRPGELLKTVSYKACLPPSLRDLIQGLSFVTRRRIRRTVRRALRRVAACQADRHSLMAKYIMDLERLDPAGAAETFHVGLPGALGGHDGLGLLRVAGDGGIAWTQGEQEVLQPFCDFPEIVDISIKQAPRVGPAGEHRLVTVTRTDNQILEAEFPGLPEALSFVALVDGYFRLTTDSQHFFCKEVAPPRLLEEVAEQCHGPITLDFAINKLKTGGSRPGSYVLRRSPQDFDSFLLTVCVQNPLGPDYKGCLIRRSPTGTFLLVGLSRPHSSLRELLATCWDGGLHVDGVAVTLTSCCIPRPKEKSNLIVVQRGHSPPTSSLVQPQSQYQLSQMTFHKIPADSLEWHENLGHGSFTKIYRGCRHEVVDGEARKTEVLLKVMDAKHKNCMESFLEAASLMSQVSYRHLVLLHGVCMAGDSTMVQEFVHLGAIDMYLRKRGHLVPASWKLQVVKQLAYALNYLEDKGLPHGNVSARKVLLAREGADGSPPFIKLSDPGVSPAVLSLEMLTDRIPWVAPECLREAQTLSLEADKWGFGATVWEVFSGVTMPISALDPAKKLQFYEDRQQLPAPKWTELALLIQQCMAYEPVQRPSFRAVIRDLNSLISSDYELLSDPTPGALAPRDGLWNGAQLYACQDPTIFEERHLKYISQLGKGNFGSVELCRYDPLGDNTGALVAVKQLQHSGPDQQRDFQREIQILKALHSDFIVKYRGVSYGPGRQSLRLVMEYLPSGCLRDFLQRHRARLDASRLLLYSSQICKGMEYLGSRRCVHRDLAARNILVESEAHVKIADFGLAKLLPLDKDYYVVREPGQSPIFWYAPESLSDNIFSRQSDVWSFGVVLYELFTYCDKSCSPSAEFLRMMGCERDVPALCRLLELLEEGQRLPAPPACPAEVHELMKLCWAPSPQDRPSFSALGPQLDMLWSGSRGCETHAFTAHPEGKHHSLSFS
Method in brief: as §1

[6] = TALL-1, IL-2 stimulated pSTAT5 in Tall-1 T cells
[7] = selectivity: difference of pKi JAK3 and pKi JAK1
[8] = IL-2 stimulated pSTAT5 in Tall-1 T cells
[9] = TALL-1, IL-2 stimulated pSTAT5, Tall-1 T cells
[10] = selectivity JAK3 over JAK1, difference of pKi
[11] = IL-2 stimulated pSTAT5, Tall-1 T cells

T3 sequence (P23458 whole entry): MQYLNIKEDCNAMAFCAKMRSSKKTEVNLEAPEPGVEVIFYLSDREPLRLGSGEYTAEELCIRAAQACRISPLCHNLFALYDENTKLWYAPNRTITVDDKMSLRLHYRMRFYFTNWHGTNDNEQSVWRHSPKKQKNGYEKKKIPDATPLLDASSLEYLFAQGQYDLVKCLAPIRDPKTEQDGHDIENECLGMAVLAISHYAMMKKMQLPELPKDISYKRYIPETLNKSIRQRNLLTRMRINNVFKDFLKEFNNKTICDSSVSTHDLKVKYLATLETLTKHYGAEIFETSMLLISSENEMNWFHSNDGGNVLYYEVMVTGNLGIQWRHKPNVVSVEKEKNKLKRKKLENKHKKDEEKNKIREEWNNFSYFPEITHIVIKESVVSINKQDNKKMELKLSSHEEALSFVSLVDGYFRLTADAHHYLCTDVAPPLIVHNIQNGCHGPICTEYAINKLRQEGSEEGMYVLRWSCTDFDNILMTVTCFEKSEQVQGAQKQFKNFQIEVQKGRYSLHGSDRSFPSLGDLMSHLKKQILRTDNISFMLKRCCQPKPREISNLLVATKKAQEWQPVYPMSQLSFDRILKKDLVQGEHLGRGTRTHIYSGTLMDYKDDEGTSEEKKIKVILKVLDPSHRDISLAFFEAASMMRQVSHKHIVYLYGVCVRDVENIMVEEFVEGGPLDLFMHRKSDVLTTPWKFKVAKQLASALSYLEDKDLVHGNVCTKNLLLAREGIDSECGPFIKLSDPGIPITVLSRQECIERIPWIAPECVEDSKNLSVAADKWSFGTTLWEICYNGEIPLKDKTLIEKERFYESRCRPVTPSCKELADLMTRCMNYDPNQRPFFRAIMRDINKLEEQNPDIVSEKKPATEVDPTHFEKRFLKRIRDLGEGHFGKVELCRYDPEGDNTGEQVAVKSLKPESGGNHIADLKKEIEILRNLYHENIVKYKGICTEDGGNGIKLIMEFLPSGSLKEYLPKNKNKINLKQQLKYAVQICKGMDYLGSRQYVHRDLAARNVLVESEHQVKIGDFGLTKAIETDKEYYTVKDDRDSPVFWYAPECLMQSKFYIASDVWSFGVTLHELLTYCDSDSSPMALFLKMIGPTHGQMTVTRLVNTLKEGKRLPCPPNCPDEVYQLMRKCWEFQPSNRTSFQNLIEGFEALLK
T1 sequence (O60674 whole entry): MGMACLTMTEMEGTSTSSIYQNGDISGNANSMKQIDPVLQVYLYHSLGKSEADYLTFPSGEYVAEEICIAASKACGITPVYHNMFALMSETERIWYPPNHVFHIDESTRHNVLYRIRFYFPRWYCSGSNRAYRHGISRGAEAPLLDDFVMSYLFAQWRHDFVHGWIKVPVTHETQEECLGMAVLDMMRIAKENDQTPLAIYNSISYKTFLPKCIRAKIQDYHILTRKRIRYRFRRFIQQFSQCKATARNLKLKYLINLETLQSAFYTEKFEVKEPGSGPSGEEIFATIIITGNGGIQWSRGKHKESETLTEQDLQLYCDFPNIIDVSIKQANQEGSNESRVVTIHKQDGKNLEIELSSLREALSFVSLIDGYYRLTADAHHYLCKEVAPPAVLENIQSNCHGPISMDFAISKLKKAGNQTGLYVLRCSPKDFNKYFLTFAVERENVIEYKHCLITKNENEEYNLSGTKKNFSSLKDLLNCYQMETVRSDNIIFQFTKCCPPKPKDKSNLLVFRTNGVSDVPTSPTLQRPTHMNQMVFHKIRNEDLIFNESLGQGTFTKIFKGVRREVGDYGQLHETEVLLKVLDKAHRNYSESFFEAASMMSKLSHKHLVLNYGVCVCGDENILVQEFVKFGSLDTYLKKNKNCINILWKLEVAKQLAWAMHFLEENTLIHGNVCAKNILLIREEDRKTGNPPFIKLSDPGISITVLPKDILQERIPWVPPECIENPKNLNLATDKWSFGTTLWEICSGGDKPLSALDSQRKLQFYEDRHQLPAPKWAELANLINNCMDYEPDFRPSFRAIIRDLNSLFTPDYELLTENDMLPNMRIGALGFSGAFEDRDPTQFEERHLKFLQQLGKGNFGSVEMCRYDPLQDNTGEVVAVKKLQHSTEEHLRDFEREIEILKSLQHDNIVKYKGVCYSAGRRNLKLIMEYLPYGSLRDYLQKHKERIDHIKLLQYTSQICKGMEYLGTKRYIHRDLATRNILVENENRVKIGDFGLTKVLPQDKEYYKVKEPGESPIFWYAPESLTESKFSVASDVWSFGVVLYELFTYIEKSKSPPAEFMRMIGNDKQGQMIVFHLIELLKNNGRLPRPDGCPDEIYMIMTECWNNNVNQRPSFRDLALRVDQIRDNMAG
T2 sequence (P29597 whole entry): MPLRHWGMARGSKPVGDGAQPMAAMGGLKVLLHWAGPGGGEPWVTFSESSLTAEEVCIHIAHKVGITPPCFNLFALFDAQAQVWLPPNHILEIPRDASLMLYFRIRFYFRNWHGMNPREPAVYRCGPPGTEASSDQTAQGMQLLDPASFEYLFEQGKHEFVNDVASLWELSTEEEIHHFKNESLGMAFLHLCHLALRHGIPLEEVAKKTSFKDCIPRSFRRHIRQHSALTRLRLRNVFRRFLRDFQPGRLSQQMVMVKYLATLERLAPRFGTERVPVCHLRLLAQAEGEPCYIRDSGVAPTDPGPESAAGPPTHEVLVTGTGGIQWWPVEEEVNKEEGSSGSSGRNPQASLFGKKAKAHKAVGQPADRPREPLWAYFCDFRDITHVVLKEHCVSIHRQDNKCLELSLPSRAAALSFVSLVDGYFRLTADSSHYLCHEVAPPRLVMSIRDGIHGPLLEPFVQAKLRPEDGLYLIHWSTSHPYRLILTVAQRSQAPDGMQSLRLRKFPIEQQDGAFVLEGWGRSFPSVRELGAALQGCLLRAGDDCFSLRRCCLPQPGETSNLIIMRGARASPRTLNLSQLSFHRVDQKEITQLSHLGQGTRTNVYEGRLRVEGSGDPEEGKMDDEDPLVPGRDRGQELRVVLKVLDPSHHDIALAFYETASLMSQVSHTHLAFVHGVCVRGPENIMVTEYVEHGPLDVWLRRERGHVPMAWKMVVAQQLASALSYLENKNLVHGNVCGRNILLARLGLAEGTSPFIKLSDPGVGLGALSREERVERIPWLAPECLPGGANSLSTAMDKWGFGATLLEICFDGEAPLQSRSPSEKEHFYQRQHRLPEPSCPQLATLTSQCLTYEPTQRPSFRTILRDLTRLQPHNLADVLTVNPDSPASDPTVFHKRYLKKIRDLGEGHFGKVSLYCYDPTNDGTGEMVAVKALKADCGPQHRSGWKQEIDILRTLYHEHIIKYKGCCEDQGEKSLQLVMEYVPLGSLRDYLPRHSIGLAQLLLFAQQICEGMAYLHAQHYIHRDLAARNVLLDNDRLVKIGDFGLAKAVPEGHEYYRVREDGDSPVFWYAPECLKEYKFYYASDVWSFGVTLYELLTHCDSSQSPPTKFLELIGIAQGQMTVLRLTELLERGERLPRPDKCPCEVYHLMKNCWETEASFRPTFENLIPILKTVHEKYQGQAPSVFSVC

Row | SMILES | Ki [1] | IC50 [2, 6] | Ki [3] | Ki [4] | Ki [5] | JAK3 (pKi)-JAK1 (pKi) [5, 7] | JAK 2 (pKi) [1] | Tall-1 (pIC50) [2, 8] | Tyk 2 (pKi) [3] | JAK 1 (pKi) [4] | JAK 3 (pKi) [5] | IC50 [2, 9] | JAK3 (pKi)-JAK1 (pKi) [5, 10] | Tall-1 (pIC50) [2, 11]
1 | C=CC(=O)N1CC[C@H](Oc2nc(-c3ccc(O)cc3)cc3[nH]ncc23)C1 [Compound 1-8] | > 100 nM | 31.6 to 200 nM | > 100 nM | > 100 nM | 0.1 to 1 nM | A (a value of 3 or above) | – | – | – | – | – | – | – | –
2 | C=CC(=O)N1CC(CC)(COc2cc(-c3ccc(O)c(F)c3)nc3[nH]ncc23)C1 [Compound 3-70] | – | – | – | – | – | A (a value of 3 or above) | E (a pKi value of 7 or below (Ki of 100 nM or above)) | B (a pIC50 value between 6.7 (included) and 7.5 (IC50 between 200 nM and 32 nM)) | E (a pKi value of 7 or below (Ki of 100 nM or above)) | E (a pKi value of 7 or below (Ki of 100 nM or above)) | A (a pKi value≥10 (Ki≤0.1 nM)) | – | – | –
3 | CN(C)C/C=C/C(=O)N1CC(F)(COc2cc(-c3ccc(O)c(F)c3)nc3[nH]ncc23)C1 [Compound 3-53] | > 100 nM | 31.6 to 200 nM | > 100 nM | > 100 nM | 0.1 to 1 nM | A (a value of 3 or above) | – | – | – | – | – | – | – | –
4 | CN(C)C/C=C/C(=O)N1CC(F)(COc2nc(-c3ccc(O)cc3)cc3[nH]ncc23)C1 [Compound 3-44] | – | – | – | – | – | B (a value of 2.3 to 3) | D (a pKi value between 7 and 8 (Ki between 100 nM and 10 nM)) | A (a pIC50 value≥7.5 (IC50≤32 nM)) | E (a pKi value of 7 or below (Ki of 100 nM or above)) | D (a pKi value between 7 and 8 (Ki between 100 nM and 10 nM)) | B (a pKi value between 9 and 10 (Ki between 1 nM and 0.1 nM)) | – | – | –
5 | C=CC(=O)N1CC[C@H](Oc2cc(-c3ccc(O)c(Cl)c3)cc3[nH]nc(C)c23)C1 [Compound 24, (S)-1-(3-((6-(3-chloro-4-hydroxyphenyl)-3-methyl-1H-indazol-4-yl)oxy)pyrrolidin-1-yl)prop-2-en-1-one] | > 100 nM | < 31.6 nM | > 100 nM | > 100 nM | 0.1 to 1 nM | A (a value of 3 or above) | – | – | – | – | – | – | – | –
6 | CN(C)C/C=C/C(=O)N1CC(F)(COc2nc(-c3ccc(O)c(F)c3)nc3[nH]ncc23)C1 [Compound 3-51] | – | – | – | – | – | A (a value of 3 or above) | E (a pKi value of 7 or below (Ki of 100 nM or above)) | C (a pIC50 value between 6 and 6.7 (IC50 between 1 μM and 200 nM)) | E (a pKi value of 7 or below (Ki of 100 nM or above)) | E (a pKi value of 7 or below (Ki of 100 nM or above)) | B (a pKi value between 9 and 10 (Ki between 1 nM and 0.1 nM)) | – | – | –
7 | C=CC(=O)N1CCS[C@@H](C(=O)Nc2cc(-c3ccc(O)cc3)cc3[nH]ncc23)C1 [Compound 12-44] | 10 to 100 nM | – | > 100 nM | > 100 nM | < 0.1 nM | – | – | – | – | – | – | 31.6 to 200 nM | A (a value of 3 or above) | –
8 | C=CC(=O)N1CC(Oc2cc(-c3ccc(O)c(F)c3)cc3[nH]ncc23)C1 [Compound 5-6] | – | – | – | – | – | A (a value of 3 or above) | E (a pKi value of 7 or below (Ki of 100 nM or above)) | B (a pIC50 value between 6.7 (included) and 7.5 (IC50 between 200 nM and 32 nM)) | E (a pKi value of 7 or below (Ki of 100 nM or above)) | E (a pKi value of 7 or below (Ki of 100 nM or above)) | B (a pKi value between 9 and 10 (Ki between 1 nM and 0.1 nM)) | – | – | –
9 | CC(C)CN(C)C/C=C/C(=O)N1CC(COc2cc(-c3ccc(O)cc3)cc3[nH]ncc23)C1 [Compound 3-118] | > 100 nM | < 31.6 nM | > 100 nM | > 100 nM | 0.1 to 1 nM | A (a value of 3 or above) | – | – | – | – | – | – | – | –
10 | C=CC(=O)N1CC[C@H](Oc2cc(-c3ccc(O)cc3)cc3[nH]ncc23)C[C@@H]1C [Compound 12-31] | 1 to 10 nM | – | > 100 nM | > 100 nM | < 0.1 nM | – | – | – | – | – | – | 31.6 to 200 nM | A (a value of 3 or above) | –
11 | C=CC(=O)N1CCC(Oc2nc(-c3ccc(O)c(Cl)c3)cc3[nH]ncc23)CC1 [Compound 6-21] | – | – | – | – | – | – | D (a pKi value between 7 and 8 (Ki between 100 nM and 10 nM)) | – | E (a pKi value of 7 or below (Ki of 100 nM or above)) | D (a pKi value between 7 and 8 (Ki between 100 nM and 10 nM)) | B (a pKi value between 9 and 10 (Ki between 1 nM and 0.1 nM)) | – | B (a value of 2.3 to 3) | B (a pIC50 value between 6.7 (included) and 7.5 (IC50 between 200 nM and 32 nM))
12 | C=CC(=O)N1CC[C@H](Oc2cc(-c3ccc(O)c(Cl)c3)cc3[nH]nc(SC)c23)C1 [Compound 1-41] | > 100 nM | 31.6 to 200 nM | > 100 nM | > 100 nM | 0.1 to 1 nM | A (a value of 3 or above) | – | – | – | – | – | – | – | –
13 | CN(C)C/C=C/C(=O)N1CCC(C)(Nc2cc(-c3ccc(O)c(Cl)c3)cc3[nH]ncc23)CC1 [Compound 7-8] | – | – | – | – | – | – | E (a pKi value of 7 or below (Ki of 100 nM or above)) | – | E (a pKi value of 7 or below (Ki of 100 nM or above)) | E (a pKi value of 7 or below (Ki of 100 nM or above)) | A (a pKi value≥10 (Ki≤0.1 nM)) | – | A (a value of 3 or above) | B (a pIC50 value between 6.7 (included) and 7.5 (IC50 between 200 nM and 32 nM))
14 | C=CC(=O)N1CC(C)(Oc2cc(-c3ccc(O)c(Cl)c3)cc3[nH]ncc23)C1 [Compound 5-23] | – | – | – | – | – | – | E (a pKi value of 7 or below (Ki of 100 nM or above)) | – | E (a pKi value of 7 or below (Ki of 100 nM or above)) | E (a pKi value of 7 or below (Ki of 100 nM or above)) | B (a pKi value between 9 and 10 (Ki between 1 nM and 0.1 nM)) | – | A (a value of 3 or above) | B (a pIC50 value between 6.7 (included) and 7.5 (IC50 between 200 nM and 32 nM))
